# In patent US20250003877A1, “Silyl Bridged Dyes” (priority 2021, published 2025):
# Where two headings read alike, the source gives them in different places.
# What was measured:
# [1] = for ϕ (quantum yield): pH 7.4
# [2] = literature values; cited from earlier work
# [3] = tested on: HaloTag®-GFP-expressing HeLa cells; test: No-wash live cell imaging of HaloTag-expressing cells with a Si-bridge dye; type: cell-based; settings: 200 nM dye, 15 min, 37° C., HeLa transfected with pHaloTag®-EGFP
# Procedure: HeLa cells were seeded in 35 mm glass bottom dishes (Cellvis, catalog no. D35-28-O—N), and transfected with pHaloTag®-EGFP (Addgene #86629). Transient transfections were performed using Lipofectamine 2000 (Invitrogen, catalog no. 1168019) following the manufacturer's instructions. HeLa cell labeling and confocal imaging were performed 24 hr after transfection.
# Labeling with JF646-HaloTag® ligand (Promega) and new dyes containing HaloTag® ligands were performed following the manufacturer's instructions. Briefly, cells were incubated with 200 nM dye in DMEM for 15 min at 37° C. Subsequently, images were obtained on a Leica SP-8 Confocal Microscope (SCOPE core facility, UMass Medical School), using a 40×1.15 Oil DIC objective. EGFP was excited with the Argon (488 nm) laser at a 15% intensity and detected through a 505-530 band pass filter and a pinhole set to 53.12 μm. Dyes fluorescing in the Cy5 channel were excited with the HeNe (633 nm) laser at a 15% intensity and detected through a 640-615 band pass filter and […] pinhole. Image analysis was performed using Leica LAS X SP8 software and ImageJ software.
# [4] = spirolactone dyes, table title says PBS, text (b560-b564) says maximal ε when ring-opened in EtOH/0.1% TFA
Compound,Em (nm) ([1]; PBS),Ex (nm) ([1]; PBS),ϕ (quantum yield) ([1]; PBS),"ε (M^−1 cm^−1) [1, 4]",fluorescence contrast / background / localisation in cells [3],also measured
"Cc1ccccc1C1=C2C=CC(=[N+](C)C)C=C2[Si](C)(C)c2cc(N(C)C)ccc21 [Compound 001, N-(7-(Dimethylamino)-5,5-dimethyl-10-(o-tolyl)dibenzo[b,e]silin-3(5H)-ylidene)-N-methylmethanaminium, reference compound]",663,648,0.34,,,"Brightness (ϕ × ε) ([1]; PBS): 43,102; ε (M^−1 cm^−1) ([1]; PBS): 126,400 M^−1 cm^−1; emission wavelength, literature value [2]: 658 nm; excitation wavelength, literature value [2]: 644 nm; ε, literature value [2]: 1.1×10^5; ϕ, literature value [2]: 0.31"
"Cc1ccccc1C1=c2cc3c(cc2[Si](C)(C)c2cc4c(cc21)CCCN4C)=[N+](C)CCC3 [Compound 016, 1,11,13,13-Tetramethyl-6-(o-tolyl)-2,3,4,8,9,10,11,13-octahydrosilino[3,2-g:5,6-g′]diquinolin-1-ium, reference compound]",,,0.31,,,"Brightness (ϕ × ε) [1]: 41,850; Em (nm) [1]: 692 nm; Ex (nm) [1]: 674 nm; ε (M^−1 cm^−1) [1]: 135,000 M^−1 cm^−1; emission wavelength, literature value [2]: 689 nm; excitation wavelength, literature value [2]: 674 nm; ε, literature value [2]: 1.3×10^5; ϕ, literature value [2]: 0.35"
"Cc1ccccc1C1=c2cc3c(cc2[Si](C)(C)c2cc4c(cc21)CCN4C)=[N+](C)CC3 [Compound 020, 1,9,11,11-Tetramethyl-5-(o-tolyl)-2,3,7,8,9,11-hexahydrosilino[3,2-f:5,6-f]diindol-1-ium, reference compound]",,,0.17,,,"Brightness (ϕ × ε) [1]: 17,000; Em (nm) [1]: 715 nm; Ex (nm) [1]: 690 nm; ε (M^−1 cm^−1) [1]: 100,000 M^−1 cm^−1; emission wavelength, literature value [2]: 712 nm; excitation wavelength, literature value [2]: 691 nm; ε, literature value [2]: 1.0×10^5; ϕ, literature value [2]: 0.12"
"CN(C)c1ccc2c(c1)[Si@](C)(CCCCl)c1cc(N(C)C)ccc1[C@@]21OC(=O)c2ccccc21 [Compound 038, (5r,10r)-5-(3-Chloropropyl)-3,7-bis(dimethylamino)-5-methyl-3′H,5H-spiro[dibenzo[b,e]siline-10,1′-isobenzofuran]-3′-one]",665,650,0.40,"200,000 M^−1 cm^−1",,"extinction coefficient (maximum) in EtOH/0.1% TFA ([1]; EtOH/0.1% TFA): ~200,000 M−1 cm−1; Brightness (ϕ × ε) ([1]; spirolactone dyes, ϕ in PBS × ε in EtOH/0.1% TFA): 80,000; overall brightness ([1]; ϕ in PBS × ε in EtOH/0.1% TFA): ~80,000 M−1 cm−1"
"CCOC(=O)CSCCC[Si@]1(C)c2cc(N(C)C)ccc2[C@]2(OC(=O)c3ccccc32)c2ccc(N(C)C)cc21 [Compound 042, Ethyl 2-((3-((5s,10s)-3,7-bis(dimethylamino)-5-methyl-3′-oxo-3′H,5H-spiro[dibenzo[b,e]siline-10,1′-isobenzofuran]-5-yl)propyl)thio)acetate]",665,645,0.45,"145,800 M^−1 cm^−1",,
"CCOC(=O)CSCCC[Si@]1(C)c2cc(N(C)C)ccc2[C@@]2(OC(=O)c3ccccc32)c2ccc(N(C)C)cc21 [Compound 043, Ethyl 2-((3-((5r,10r)-3,7-bis(dimethylamino)-5-methyl-3′-oxo-3′H,5H-spiro[dibenzo[b,e]siline-10,1′-isobenzofuran]-5-yl)propyl)thio)acetate]",665,646,0.45,"150,700 M^−1 cm^−1",,
"CN(C)c1ccc2c(c1)[Si@](C)(CCCSCC(=O)NCCOCCOCCCCCCCl)c1cc(N(C)C)ccc1[C@]21OC(=O)c2ccccc21 [Compound 044, 2-((3-((5s,10s)-3,7-Bis(dimethylamino)-5-methyl-3′-oxo-3′H,5H-spiro[dibenzo[b,e]siline-10,1′-isobenzofuran]-5-yl)propyl)thio)-N-(2-(2-((6-chlorohexyl)oxy)ethoxy)ethyl)acetamide]",,,,,poorly fluorescent in all cells,labeling of HaloTag®-expressing cells [3]: did not label HaloTag®-expressing cells
"CN(C)c1ccc2c(c1)[Si@](C)(CCCSCC(=O)NCCOCCOCCCCCCCl)c1cc(N(C)C)ccc1[C@@]21OC(=O)c2ccccc21 [Compound 045, 2-((3-((5r,10r)-3,7-Bis(dimethylamino)-5-methyl-3′-oxo-3′H,5H-spiro[dibenzo[b,e]siline-10,1′-isobenzofuran]-5-yl)propyl)thio)-N-(2-(2-((6-chlorohexyl)oxy)ethoxy)ethyl)acetamide]",,,,,bright high contrast images that correlated strongly to GFP expression,
"CN(C)c1ccc2c(c1)[Si@](C)(CCCI)c1cc(N(C)C)ccc1[C@]21OC(=O)c2ccccc21 [Compound 047, (5s,10s)-3,7-Bis(dimethylamino)-5-(3-iodopropyl)-5-methyl-3′H,5H-spiro[dibenzo[b,e]siline-10,1′-isobenzofuran]-3′-one]",665,645,0.43,"115,000 M^−1 cm^−1",,
"CN(C)c1ccc2c(c1)[Si@](C)(CCCI)c1cc(N(C)C)ccc1[C@@]21OC(=O)c2ccccc21 [Compound 048, (5r,10r)-3,7-Bis(dimethylamino)-5-(3-iodopropyl)-5-methyl-3′H,5H-spiro[dibenzo[b,e]siline-10,1′-isobenzofuran]-3′-one]",665,645,0.45,"144,000 M^−1 cm^−1",,
"COc1cccc(OC)c1C1=C2C=CC(=[N+](C)C)C=C2[Si@](C)(CCCSCCOCCOCCOCCOCCCCCCCl)c2cc(N(C)C)ccc21 [Compound 049, N-(5-(22-Chloro-7,10,13,16-tetraoxa-4-thiadocosyl)-10-(2,6-dimethoxyphenyl)-7-(dimethylamino)-5-methyldibenzo[b,e]silin-3(5H)-ylidene)-N-methylmethanaminium]",,,,,only stained mitochondria,labeling of HaloTag®-expressing cells [3]: did not label HaloTag®-expressing cells
"CN(C)c1ccc2c(c1)[Si@](C)(CCCSCCOCCOCCOCCOCCCCCCCl)c1cc(N(C)C)ccc1[C@]21OC(=O)c2ccccc21 [Compound 050, (5s,10s)-5-(22-Chloro-7,10,13,16-tetraoxa-4-thiadocosyl)-3,7-bis(dimethylamino)-5-methyl-3′H,5H-spiro[dibenzo[b,e]siline-10,1′-isobenzofuran]-3′-one]",,,,,high background,labeling of HaloTag®-expressing cells [3]: did not label HaloTag®-expressing cells
"CN(C)c1ccc2c(c1)[Si@](C)(CCCSCCOCCOCCOCCOCCCCCCCl)c1cc(N(C)C)ccc1[C@@]21OC(=O)c2ccccc21 [Compound 051, (5r,10r)-5-(22-Chloro-7,10,13,16-tetraoxa-4-thiadocosyl)-3,7-bis(dimethylamino)-5-methyl-3′H,5H-spiro[dibenzo[b,e]siline-10,1′-isobenzofuran]-3′-one]",,,,,significant background,labeling of HaloTag®-expressing cells [3]: labeled HaloTag®-expressing cells
"CN(C)c1ccc2c(c1)[Si@](C)(CCCN=[N+]=[N-])c1cc(N(C)C)ccc1[C@]21OC(=O)c2ccccc21 [Compound 053, (5s,10s)-5-(3-Azidopropyl)-3,7-bis(dimethylamino)-5-methyl-3′H,5H-spiro[dibenzo[b,e]siline-10,1′-isobenzofuran]-3′-one]",666,645,0.43,"206,700 M^−1 cm^−1",,
"CN(C)c1ccc2c(c1)[Si@](C)(CCCN=[N+]=[N-])c1cc(N(C)C)ccc1[C@@]21OC(=O)c2ccccc21 [Compound 054, (5r,10r)-5-(3-Azidopropyl)-3,7-bis(dimethylamino)-5-methyl-3′H,5H-spiro[dibenzo[b,e]siline-10,1′-isobenzofuran]-3′-one]",665,645,0.44,"218,400 M^−1 cm^−1",,
"CN(C)c1ccc2c(c1)[Si@](C)(CCCSCC(=O)O)c1cc(N(C)C)ccc1[C@]21OC(=O)c2ccccc21 [Compound 063, 2-((3-((5s,10s)-3,7-Bis(dimethylamino)-5-methyl-3′-oxo-3′H,5H-spiro[dibenzo[b,e]siline-10,1′-isobenzofuran]-5-yl)propyl)thio)acetic acid]",665,645,0.45,"180,600 M^−1 cm^−1",,
"CN(C)c1ccc2c(c1)[Si@](C)(CCCSCC(=O)O)c1cc(N(C)C)ccc1[C@@]21OC(=O)c2ccccc21 [Compound 064, 2-((3-((5r,10r)-3,7-Bis(dimethylamino)-5-methyl-3′-oxo-3′H,5H-spiro[dibenzo[b,e]siline-10,1′-isobenzofuran]-5-yl)propyl)thio)acetic acid]",665,645,0.45,"160,400 M^−1 cm^−1",,
C[Si]1(C)c2cc(N3CCC3)ccc2C2(OC(=O)c3ccc(C(=O)NCCOCCOCCCCCCCl)cc32)c2ccc(N3CCC3)cc21 [JF646-HaloTag® ligand],,,,,high contrast images,
